The record followed here is patent US20240150719A1, “MAGNETIC SHEAR BIOREACTOR APPARATUS AND METHODS” (THE BOARD OF REGENTS OF THE UNIVERSITY OF TEXAS SYSTEM, priority 2021, published 2024).

One test relates to COX2 protein. The experiment in a line: Western blot of COX2 protein in fluid shear stressed human MSCs. In kind it is cell-based. The conditions noted are these: BAY11-7085 10 μM; human MSC, 8 hours of fluid shear stress. As to the method: FIG. 11 illustrates representative Western blots showing increased intracellular COX2 protein, which is reduced by NF-kB antagonist BAY11-7085 (10 μM).
A pilot study was conducted to provide proof of principle that fluid shear stress can be used to condition stem cells, alter gene expression, and enhance functional activities. To exemplify the conditioning activity of shear stress of the type provided by the present system, but on a much smaller analytical scale, force (shear stress) was applied using custom fabricated slides or IBIDI® small-scale microfluidics channel slides obtained from IBIDI, LLC. (Verona, WI, USA). Human samples were harvested from bone marrow (BM), amniotic fluid (AF), or adipose (AD) tissue, processed for isolation and expansion of hMSC, and stored frozen. […] The number of live cells present was determined using trypan blue dye exclusion. Live cell counts were determined on a hemacytometer and the cells were resuspended to obtain the desired concentration for each assay (see Table 1). […]
Similarly it was determined utilizing commercially available ELISAs that the media from human MSCs cultures that had been subject to fluid shear stress also contained immunomodulatory proteins, such as prostaglandin E2. […]

Test [1] concerns TNF-α secretion by splenocytes. Nature of the test: TNF-α cytokine suppression assay: MSCs in static co-culture with LPS- or PHA-activated splenocytes. In kind it is cell-based, mouse. As to conditions: for ability of shear treated MSC to suppress TNF-α production: inhibitor 10 μM, six MSC donor lines, compared to Static Vehicle. As to the method:
FIG. 12 illustrates TNF-αcytokine suppression assays that highlight functional enhancement of MSC immunomodulation. Human MSCs preconditioned by mechanical force (15 dyne/cm2 shear stress for 3 hours) are placed in static co-culture with lipopoly-saccharide (LPS) or phytohaemagglutinin (PHA)-activated splenocytes including macrophages, neutrophils, NK, B, and T cells. […] Lower values correspond to greater anti-inflammatory potency. hBM MSC, human bone marrow MSC; hAF MSC, amniotic fluid MSC; hAD MSC, adipose-derived MSC. P-values calculated by paired t-test, equal variance.
Asterisks indicate p<0.001 compared to Static Vehicle. n=6 indicates six different MSC donor lines included in data shown.
(§1) Similarly it was determined utilizing commercially available ELISAs that the media from human MSCs cultures that had been subject to fluid shear stress also contained immunomodulatory proteins, such as prostaglandin E2. In addition, Western blotting confirmed elevated protein levels (translation) of COX2, TSG6, and IL1RN. Actin protein expression levels, which are constant, were used as a control for baseline protein expression. […] It was also determined that this induction could be abrogated by the addition of 10 uM of the NF-kappa B antagonist BAY11-7085 (FIG. 11). Furthermore by utilizing commercially available ELISAs, it was determined that the media from human MSCs cultures that had been subject to fluid shear stress for as little as 3 hours had immunosuppressive activity, as evidenced by the 10-50% reduction in TNF-α when treated hMSCs were co-cultured with activated immune cells from the spleen (FIG. 12).

In the next test the test system is human amniotic fluid MSC. Nature of the test: Priming agents combined with shear stress: anti-inflammatory signaling in human amniotic MSC line. In kind it is cell-based. As to the method: FIG. 14 illustrates that priming agents complement shear-induced anti-inflammatory signaling. Darkened bars represent treatment combinations that indicate a substantial induction of the pathway by shear stress and cytokines (IFN-γ, 20 ng/ml; TNF-α, 50 ng/ml). In this low-performance human amniotic MSC line, TSG6 was induced by shear stress only. IDO was induced by IFN-γ only. hAF MSC, human amniotic fluid MSC.
as §1

Entries after “also recorded” stand apart in the source; their conditions may differ.

As to `CC(C)(C)c1ccc(S(=O)(=O)/C=C/C#N)cc1` [BAY11-7085], the “shear-induced intracellular COX2 protein (Western blot)” value in the test with COX2 protein is reported as “abrogated; also recorded: reduced”. In test [1], the “ability of shear treated MSC to suppress TNF-α production” value (“ability of shear treated MSC” below) is “abrogate the positive effects of shear stress”.

On to `COc1ccc2c(c1)c(CC(=O)O)c(C)n2C(=O)c1ccc(Cl)cc1` [Indomethacin], for which, in test [1], the “ability of shear treated MSC” value was “abrogate the positive effects of shear stress”.

Take `CS(=O)(=O)Nc1ccc([N+](=O)[O-])cc1OC1CCCCC1` [NS-398]: the “ability of shear treated MSC” value in test [1] is “abrogate the positive effects of shear stress”.

Take `CCCCC(C)(C)C(O)C=CC1C(O)CC(=O)C1CC=CCCCC(=O)O` (stereo not shown) [dmPGE2, 16,16′-dimethyl prostaglandin E2]: the “TNF-α production with ectopic dmPGE2” value in test [1] (dmPGE2 10 μM) was “reduced TNF-α to levels produced in the presence of sheared MSCs; also recorded: mimics MSC suppression”.

Consider IFN-γ: cytokine used as priming agent, for which, in the test with human amniotic fluid MSC (IFN-γ 20 ng/ml, low-performance human amniotic MSC line), the IDO induction entry is “induced”. The “induction of COX2 and HMOX1 in sheared MSCs with added priming agent” value in the test with human amniotic fluid MSC (addition of IFN-γ to sheared MSCs versus MSC not subject to shear) was “greater induction”.
